Results reported in EP0674651B1, “SUBSTITUTED 6-AZAANDROSTENONES” (priority 1992, dated 1994).

Columns and labels:
[1] = target: T1, human type 2 5α-reductase (Homo sapiens, UniProt P31213); assay: 5α-reductase in vitro inhibitory activity, human type 2
T1 sequence (P31213 1-254): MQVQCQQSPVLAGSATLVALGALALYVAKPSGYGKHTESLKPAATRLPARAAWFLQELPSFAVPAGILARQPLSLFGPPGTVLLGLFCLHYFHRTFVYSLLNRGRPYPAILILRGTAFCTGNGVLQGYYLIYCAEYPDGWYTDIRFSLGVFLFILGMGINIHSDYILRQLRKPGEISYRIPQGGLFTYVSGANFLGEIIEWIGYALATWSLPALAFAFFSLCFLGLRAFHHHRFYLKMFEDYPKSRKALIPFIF

[2] = target: T2, human type 1 5α-reductase (Homo sapiens, UniProt P18405); assay: 5α-reductase in vitro inhibitory activity, human type 1
T2 sequence (P18405 1-259): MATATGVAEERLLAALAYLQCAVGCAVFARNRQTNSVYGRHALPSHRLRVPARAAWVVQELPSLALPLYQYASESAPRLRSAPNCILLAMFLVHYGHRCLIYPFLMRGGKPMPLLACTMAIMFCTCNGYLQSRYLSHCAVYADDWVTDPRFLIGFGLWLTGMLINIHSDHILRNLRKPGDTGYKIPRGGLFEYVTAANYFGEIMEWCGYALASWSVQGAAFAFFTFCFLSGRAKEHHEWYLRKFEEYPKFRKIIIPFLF

SMILES | IC50 [1] | IC50 [2]
CC(C)(C)c1ccc(C(NC(=O)[C@H]2CC[C@H]3[C@@H]4CNC5=CC(=O)CC[C@]5(C)[C@H]4CC[C@]23C)C(C)(C)C)cc1 (stereo partly drawn) [Compound 73, 17β-N-(1-t-Butyl-1-(4-t-butylphenyl))methyl-carbamoyl-6-azaandrost-4-en-3-one] | < 10 nM | < 10 nM
CCC(CC)(NC(=O)[C@H]1CC[C@H]2[C@@H]3CNC4=CC(=O)CC[C@]4(C)[C@H]3CC[C@]12C)c1ccccc1 [Compound 103, 17β-N-(1-Ethyl-1-phenyl)propyl-carbamoyl-6-azaandrost-4-en-3-one] | < 10 nM | 10 to 100 nM
C[C@]12CC[C@H]3[C@@H](CNC4=CC(=O)CC[C@@]43C)[C@@H]1CC[C@@H]2C(=O)NC1(c2ccc3c(c2)OCO3)CCCCC1 [Compound 124, 17β-N-1-(3,4-Methylenedioxyphenyl)cyclohexyl-carbamoyl-6-azaandrost-4-en-3-one] | < 10 nM | 10 to 100 nM
C[C@]12CC[C@H]3[C@@H](CNC4=CC(=O)CC[C@@]43C)[C@@H]1CC[C@@H]2C(=O)c1ccc(F)cc1F [Compound 26, 17β-(1-Oxo-1-(2,4-difluorophenyl)methyl)-6-azaandrost-4-en-3-one] | < 10 nM | 10 to 100 nM
CC(C)(C)c1ccc(NC(=O)[C@H]2CC[C@H]3[C@@H]4CNC5=CC(=O)CC[C@]5(C)[C@H]4CC[C@]23C)c(Cl)c1 [Compound 72, 17β-N-(2-Chloro-4-t-butyl)phenyl-carbamoyl-6-azaandrost-4-en-3-one] | < 10 nM | 10 to 100 nM
CCc1cc(C#N)ccc1NC(=O)[C@H]1CC[C@H]2[C@@H]3CNC4=CC(=O)CC[C@]4(C)[C@H]3CC[C@]12C [Compound 84, 17β-N-(2-Ethyl-4-cyano)phenyl-carbamoyl-6-azaandrost-4-en-3-one] | < 10 nM | 10 to 100 nM
CC(C)(C)c1ccc(NC(=O)[C@H]2CC[C@H]3[C@@H]4CNC5=CC(=O)CC[C@]5(C)[C@H]4CC[C@]23C)cc1 [Compound 108, 17β-N-(4-t-Butyl)phenyl-carbamoyl-6-azaandrost-4-en-3-one] | < 10 nM | 10 to 100 nM
CC(=O)NC[C@H]1CC[C@H]2[C@@H]3CNC4=CC(=O)CC[C@]4(C)[C@H]3CC[C@]12C [Compound 97, 17β-Aminomethyl-(acetamide)-6-azaandrost-4-en-3-one] | 10 to 100 nM | > 100 nM
CCc1c(Cl)cc(Cl)c(CC)c1NC(=O)[C@H]1CC[C@H]2[C@@H]3CNC4=CC(=O)CC[C@]4(C)[C@H]3CC[C@]12C [Compound 54, 17β-N-(2,6-Diethyl-3,5-dichloro)phenyl-carbamoyl-6-azaandrost-4-en-3-one] | < 10 nM | 10 to 100 nM
C[C@]12CC[C@H]3[C@@H](CNC4=CC(=O)CC[C@@]43C)[C@@H]1CC[C@@H]2C(=O)NC1(c2ccc(Cl)cc2)CCCCC1 [Compound 146, 17β-N-1-(4-Chlorophenyl)cyclohexyl-carbamoyl-6-azaandrost-4-en-3-one] | < 10 nM | < 10 nM
C[C@]12CC[C@H]3[C@@H](CNC4=CC(=O)CC[C@@]43C)[C@@H]1CC[C@@H]2C(=O)NC1(c2cccc(C(F)(F)F)c2)CCCC1 [Compound 102, 17β-N-1-(3-Trifluoromethylphenyl)cyclopentyl-carbamoyl-6-azaandrost-4-en-3-one] | < 10 nM | < 10 nM
CCN(CC)C(=O)c1ccc(C(C)(C)C)c(NC(=O)[C@H]2CC[C@H]3[C@@H]4CNC5=CC(=O)CC[C@]5(C)[C@H]4CC[C@]23C)c1 [Compound 105, 17β-N-(2-t-Butyl-5-N,N-diethylcarbamoyl)phenyl-carbamoyl-6-azaandrost-4-en-3-one] | < 10 nM | < 10 nM

Results, then the compound that gave them:

IC50 [1] | IC50 [2] | SMILES
< 10 nM | 10 to 100 nM | CC(C)(C)c1ccccc1NC(=O)[C@H]1CC[C@H]2[C@@H]3CNC4=CC(=O)CC[C@]4(C)[C@H]3CC[C@]12C [Compound 56, 17β-N-(2-t-Butyl)phenyl-carbamoyl-6-azaandrost-4-en-3-one]
< 10 nM | < 10 nM | CC1=C2NC[C@H]3[C@@H]4CC[C@H](C(=O)NC5(c6ccc(Cl)cc6)CCCC5)[C@@]4(C)CC[C@@H]3[C@@]2(C)CCC1=O [Compound 125, 17β-N-1-(4-Chlorophenyl)cyclopentyl-carbamovl-6-azaandrost-4-methyl-4-en-3-one]
< 10 nM | < 10 nM | CC(C)(C)c1ccc(-c2ccc(C(C)(C)C)c(NC(=O)[C@H]3CC[C@H]4[C@@H]5CNC6=CC(=O)CC[C@]6(C)[C@H]5CC[C@]34C)c2)cc1 [Compound 147, 17β-N-(2-t-Butyl-5-(4-t-butyl)phenyl)phenyl-carbamoyl-6-azaandrost-4-en-3-one]
< 10 nM | 10 to 100 nM | C[C@]12CC[C@H]3[C@@H](CNC4=CC(=O)CC[C@@]43C)[C@@H]1CC[C@@H]2C(=O)Nc1cc(C(F)(F)F)ccc1F [Compound 129]
< 10 nM | < 10 nM | C[C@]12CC[C@H]3[C@@H](CNC4=CC(=O)CC[C@@]43C)[C@@H]1CC[C@@H]2C(=O)NC1(c2ccc(F)cc2)CCCCC1 [Compound 109, 17β-N-1-(4-Fluorophenyl)cyclohexyl-carbamoyl-6-azaandrost-4-en-3-one]
10 to 100 nM | > 100 nM | CC(C)c1cc(C(C)C)c(C(=O)[C@H]2CC[C@H]3[C@@H]4CNC5=CC(=O)CC[C@]5(C)[C@H]4CC[C@]23C)c(C(C)C)c1 [Compound 60, 17β-(1-Oxo-1-((2,4,6-tri-i-propyl)phenyl)methyl)-6-azaandrost-4-en-3-one]
< 10 nM | 10 to 100 nM | COC(=O)c1sc(C(C)(C)C)cc1NC(=O)[C@H]1CC[C@H]2[C@@H]3CNC4=CC(=O)CC[C@]4(C)[C@H]3CC[C@]12C [Compound 132, 17β-N-3-(2-Carbomethoxy-5-t-butyl)thiophenyl-carbamoyl-6-azaandrost-4-en-3-one]
< 10 nM | < 10 nM | CC(C)(C)c1ccc(C2(NC(=O)[C@H]3CC[C@H]4[C@@H]5CNC6=CC(=O)CC[C@]6(C)[C@H]5CC[C@]34C)C3CCCC2CCC3)cc1 (stereo partly drawn) [Compound 144, 17β-N-9-(4-t-Butylphenyl)bicyclo[3.3.1]nonyl-carbamoyl-6-azaandrost-4-en-3-one]
< 10 nM | 10 to 100 nM | CCc1cc(Br)cc(CC)c1NC(=O)[C@H]1CC[C@H]2[C@@H]3CNC4=CC(=O)CC[C@]4(C)[C@H]3CC[C@]12C [Compound 70, 17β-N-(2,6-Diethyl-4-bromo)phenyl-carbamoyl-6-azaandrost-4-en-3-one]
< 10 nM | 10 to 100 nM | COc1ccccc1Oc1ccc(C(F)(F)F)cc1NC(=O)[C@H]1CC[C@H]2[C@@H]3CNC4=CC(=O)CC[C@]4(C)[C@H]3CC[C@]12C [Compound 80]
< 10 nM | 10 to 100 nM | CC(C)(C)c1ccc(NC(=O)[C@H]2CC[C@H]3[C@@H]4CNC5=CC(=O)CC[C@]5(C)[C@H]4CC[C@]23C)c(Br)c1 [Compound 71, 17β-N-(2-Bromo-4-t-butyl)phenyl-carbamoyl-6-azaandrost-4-en-3-one]
< 10 nM | 10 to 100 nM | C[C@]12CC[C@H]3[C@@H](CNC4=CC(=O)CC[C@@]43C)[C@@H]1CC[C@@H]2C(=O)Nc1ccccc1C(=O)c1ccccc1 [Compound 123, 17β-N-(2-Benzoyl)phenyl-carbamoyl-6-azaandrost-4-en-3-one]
